Consider eight molecules from patent US8039614B2, “4' -C-substituted-2-haloadenosine derivative” (Yamasa Corporation, priority 2004, dated 2011).

For data set [1], the system named is HIV-1 wild strain (WT). Description: MAGI assay using HeLa CD4/LTR-beta-Gal cells, wild strain. It is filed as cell-based. The note with it: Human immunodeficiency virus 1, 48 hours, read-out: Anti-HIV-1wild activity (EC50). Here is the method: (§1) • 1. A test agent (100 μl) is diluted on a 96-well microplate. MT-4 cells infected with HIV-1 (IIIb strain; 100 TCID50) and non-infected MT-4 cells are added to the microplate such that the number of cells in each well becomes 10,000. The cells are cultured at 37° C. for five days. • 2. MTT (20 μl, 7.5 mg/ml) is added to each well, and the cells are further cultured for 2-3 hours. • 3. The cultured medium (120 μl) is sampled, and MTT terminating solution (isopropanol containing 4% Triton X-100 and 0.04N HCl) is added to the sample. The mixture is stirred to dissolve formed formazan. The absorbance at 540 nm of the solution is measured. Since the absorbance is proportional to the number of viable cells, the test agent concentration at which a half value of the absorbance is measured in a test using infected MT-4 cells represents EC50, whereas the test agent concentration at which a half value of the absorbance is measured in a test using non-infected MT-4 cells represents CC50. 2) MAGI Assay Using HeLa CD4/LTR-beta-Gal Cells • 1. HeLa CD4/LTR-beta-Gal cells are added to 96 wells such that the number of cells in each well is 10,000. After 12-24 hours, the culture medium is removed, and a diluted test agent (100 μl) is added. • 2. A variety of HIV strains (wild strain: WT, drug-resistant strain: MDR and M184V; each being equivalent to 50 TCID50) are added, and the cells are further cultured for 48 hours. • 3. The cells are fixed for five minutes using PBS supplemented with 1% formaldehyde and 0.2% glutaraldehyde. • 4. After the fixed cells are washed with PBS three times, the cells are stained with 0.4 mg/ml X-Gal for one hour, and the number of blue-stained cells of each well is counted under a transmission stereoscopic microscope. The test agent concentration at which blue-stained cells decrease to 50% in number represents EC50. <Results> Anti-human-immunodeficiency Virus (HIV) Activity and Cytotoxicity 1) MTT Method Using MT-4 Cells

Data set [2] relates to HIV-1 MDR drug-resistant strain. Description: MAGI assay using HeLa CD4/LTR-beta-Gal cells, drug-resistant strain MDR. It is filed as cell-based. The note with it: Human immunodeficiency virus 1, HeLa, 48 h, read-out: Anti-HIV-1MDR activity (EC50, μM). Here is the method:
as §1

Data set [3] relates to HIV-1 M184V drug-resistant strain. Description: MAGI assay using HeLa CD4/LTR-beta-Gal cells, drug-resistant strain M184V. The format is cell-based. The note with it: Human immunodeficiency virus 1, HeLa, 48 h, read-out: Anti-HIV-1M184V activity (EC50, μM). Here is the method:
as §1

Data set [4] relates to HIV-1 (IIIb strain). Description: MTT method using MT-4 cells infected with HIV-1 (anti-HIV activity). The format is cell-based. As to conditions: for EC50: MT-4 cells infected with HIV-1 IIIb, MTT, five days; for Selectivity Index (CC50/EC50): MT-4 cells. Here is the method: (§2) 1) MTT Method Using MT-4 Cells
as §1
(Tetrazolium dyes change colour on reduction, which living cells bring about.)

Data set [5] in a line: MTT method using non-infected MT-4 cells (cytotoxicity). The format is cell-based. The note with it: human. How it is done: as §2, §1
Data set [6] has as its target T1, Calf-intestine-derived adenosine deaminase (Bos taurus, UniProt P56658).
T1 construct: Calf-intestine-derived adenosine deaminase; from tissue; host or cells: calf intestine
T1 sequence (P56658 1-363): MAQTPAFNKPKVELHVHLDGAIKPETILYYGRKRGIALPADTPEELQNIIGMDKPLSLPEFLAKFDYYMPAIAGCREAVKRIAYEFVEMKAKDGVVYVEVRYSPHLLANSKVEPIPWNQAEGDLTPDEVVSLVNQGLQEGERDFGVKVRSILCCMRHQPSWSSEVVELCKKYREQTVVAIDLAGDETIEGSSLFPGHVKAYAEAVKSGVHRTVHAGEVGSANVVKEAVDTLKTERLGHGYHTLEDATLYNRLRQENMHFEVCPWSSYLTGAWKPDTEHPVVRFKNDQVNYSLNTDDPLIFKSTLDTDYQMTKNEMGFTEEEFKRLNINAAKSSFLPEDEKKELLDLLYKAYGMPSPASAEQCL
The data set can be described thus: Stability against adenosine deaminase (HPLC). The format is in vitro ADME. As to conditions: 0.01 unit enzyme, 0.5 mM compound, Tris-HCl pH 7.5, 25° C., FIG. 1. How it is done:
<Test Methods> Stability of Compound 4 Against Adenosine Deaminase Calf-intestine-derived adenosine deaminase (0.01 unit) was added to 0.5 ml of 0.5-mM compound 4 (50 mM Tris-HCl buffered solution (pH 7.5)), and the mixture was incubated at 25° C. A 5-μl aliquot of the reaction mixture was removed every 15 minutes, followed by analysis by means of HPLC (high performance liquid chromatography). The peak area of a test drug at reaction time 0 was taken as 100%, and the curve was monitored over time. The HPLC analysis was performed under the following conditions. Column: YMC-Pack ODS-A (250×6.0 mm) Eluent: 15% MeCN-50 mM TEAA Flow rate: 1 mL/min. Temperature: 30° C. Detection: 260 nm

Data set [7] is described as follows: Stability under acidic conditions (HPLC). It is filed as physicochemical. As to conditions: NaCl/hydrochloric acid test solution, 37° C. How it is done: <Test Methods> Stability of Compound 4 Under Acidic Conditions
Compound 4 (2.9 mg) or 2′,3′-dideoxyadenosine (ddAdo: 2.4 mg) was dissolved in 10 ml of a 37° C. test solution (which had been prepared by adding 2.0 g of sodium chloride and 7.0 ml of hydrochloric acid into water to make a solution of 1,000 ml), followed by incubation at the same temperature (37° C.).
A 100-μl aliquot of the reaction mixture was removed therefrom and neutralized with aqueous 0.1-N sodium hydroxide solution, followed by analysis of 5 μl by means of HPLC. The HPLC analysis conditions are the same as those employed in Test Example 2.

Data set [8] has as its system ICR mice. The data set can be described thus: In vivo acute toxicity test in ICR mice. The note with it: for Survisors/Total: ICR mice, seven days. Here is the method: <Test methods> In vivo Acute Toxicity Test of Compound 4
Groups of ICR mice (6 weeks of age, male), each group consisting of 8 mice, were given a test drug (Compound 4; dissolved or suspended in saline) via oral route or intravenous injection in amounts up to 100 mg/kg. The occurrence of death and body weight of each mouse were monitored for seven days.

Data set [9] has as its system non-infected MT-4 cells. The data set can be described thus: MTT method using non-infected MT-4 cells (cytotoxicity). The note with it: non-infected MT-4 cells, MTT, five days. The format is cell-based. Here is the method: as §2, §1
Setting [10] is: Human immunodeficiency virus 1, MT4, 120 h.

In general, EC50 refers to the concentration at which the effect is half-maximal. Regarding `C#C[C@@]1(CO)C=C[C@H](n2cnc3c(N)nc(F)nc32)O1` [Compound 13, 2′,3′-didehydro-2′,3′-dideoxy-4′-C-ethynyl-2-fluoroadenosine], the EC50 in data set [1] came to 800 nM; in [2], 0.15 µM; in [3] it was 1.8 µM.

Consider `N#C[C@]1(CO)O[C@@H](n2cnc3c(N)nc(F)nc32)C[C@@H]1O` [Compound 8, 4′-C-cyano-2′-deoxy-2-fluoroadenosine], for which the EC50 in data set [1] came out at 120 nM; in data set [2], 0.95 µM; in [3], 4.8 µM.

For `C#C[C@]1(CO[PH](=O)O)O[C@@H](n2cnc3c(N)nc(F)nc32)C[C@H]1O` [Compound 10, 2′-deoxy-4′-C-ethynyl-2-fluoroadenosine 5′-H-phosphonate], the results for the concentration for a half-maximal effect (EC50) in data set [1], in data set [2] and in [3] were 3.4 nM, 0.003 µM and 0.062 µM, respectively.

In the case of `C#C[C@]1(CO)O[C@@H](n2cnc3c(N)nc(Cl)nc32)C[C@@H]1O` [Compound 9, 2-chloro-2′-deoxy-4′-C-ethynyladenosine], the 50% effective concentration (EC50) in [1] was 1.9 nM; in data set [2] it was 0.0084 µM; in [3], 0.01 µM.

In general, CC50 refers to the concentration that lowers cell viability or growth by half. A low value points to harm at low concentration. For the molecule `C#C[C@]1(CO)O[C@@H](n2cnc3c(N)ncnc32)C[C@@H]1O` [EdAdo, 2′-deoxy-4′-C-ethynyladenosine, reference compound], the concentration for a half-maximal effect (EC50) came to 9.8 nM in data set [4] (setting [10]), 8 nM in data set [1], 0.0062 µM in data set [2] and 0.047 µM in [3]. Besides, the “Selectivity Index (CC50/EC50)” value in data set [4] is recorded as 1,630. In [5], the cytotoxic concentration (CC50) at 5 days was 16000 nM. Besides, in data set [6], the “Deamination by adenosine deaminase” value was “deaminated”.

As to `C#C[C@]1(CO)O[C@@H](n2cnc3c(N)nc(F)nc32)C[C@@H]1O` [Compound 4, 2′-deoxy-4′-C-ethynyl-2-fluoroadenosine], the EC50 is 0.068 nM in data set [4] (setting [10]), 0.2 nM in data set [1], 0.000145 µM in data set [2] and 0.00311 µM in [3]. Also, in data set [4], the “Selectivity Index (CC50/EC50)” value is 110,000. Also, the half-maximal cytotoxic concentration (CC50) at 5 days in data set [5] worked out at 7500 nM. The “Deamination by adenosine deaminase” value in data set [6] is recorded as “not at all deaminated”. For the same molecule, the “Degradation under acidic conditions” value in data set [7] (FIG. 2) was “degraded very slowly”. The Survisors/Total in data set [8] (Intravenous, 1 mg/kg single dose) was 8/8; in [8] (Intravenous, 3 mg/kg single dose), 8/8; in data set [8] (Intravenous, 10 mg/kg single dose), 8/8; in [8] (Intravenous, 30 mg/kg single dose), 8/8; in data set [8] (Intravenous, 100 mg/kg single dose), 8/8; in [8] (Oral, 1 mg/kg single dose), 8/8. Besides, the Survisors/Total in [8] (Oral, 3 mg/kg single dose) is on record as 8/8; in data set [8] (Oral, 10 mg/kg single dose), 8/8; in [8] (Oral, 30 mg/kg single dose), 8/8; in data set [8] (Oral, 100 mg/kg single dose), 8/8. In addition, in data set [8] (mouse, in vivo), the “Acute toxicity in mice (conclusion)” value is “does not exhibit acute toxicity”. Further, the “Survival of mice” value in data set [8] (mouse, in vivo) is on record as “survived”. Besides, the “Weight loss and pathological symptoms such as diarrhea” value in [8] (mouse, in vivo) is reported as “not observed”.

On to `Nc1ncnc2c1ncn2[C@H]1CC[C@@H](CO)O1` [ddAdo, 2′,3′-dideoxyadenosine, reference compound], for which the “Fraction degraded under acidic conditions” value in data set [7] (in about five minutes, FIG. 3) is given as “About 98%”.

As for `C#C[C@]1(CO)O[C@@H](n2cnc3c(N)nc(N)nc32)C[C@@H]1O` [EdDAP, 9-(4-C-ethynyl-2-deoxy-ribopentofuranosyl)-2,6-diaminopurine], the response in data set [4] was half-maximal at 0.34 nM (EC50). Moreover, it took 900 nM to reach half-maximal cytotoxicity in [9] (CC50).
